Laboratory results taken from US12577267B2, “Pyrimidine compounds for use as MAP4K1 inhibitors” (GLENMARK SPECIALITY S.A., priority 2021, dated 2026).
Counter-ions that a name gives are not always drawn. Like-named read-outs stand apart in the source and are kept apart here.

Target: MAP4K-1 enzyme (Homo sapiens, UniProt Q92918)
Assay: FRET one step binding assay (tracer displacement)
Conditions: for inhibition at 1 µM / % Inhibition at 1 μM: 1 μM compound; for inhibition at 10 µM / % Inhibition at 10 μM: 10 μM compound
Method: This is a one step binding assay based on the binding and displacement of the labeled tracer, where compound addition is followed by addition of the anti-GST tagged europium (Eu) as the donor and Alexa Fluor-labeled tracer as the acceptor.
Test compounds were dissolved in dimethylsulfoxide (DMSO) to prepare 10.0 mM stock solutions and diluted to the desired concentration. The final concentration of DMSO in the reaction was 3% (v/v). The assay mixture was prepared by mixing 2 nM of the Eu-Anti-GST Antibody and 5 nM MAP4K-1 enzyme in the Kinase buffer containing 50 mM HEPES (pH 7.5), 10 mM MgCl2, 1 mM EGTA, 0.01% Brij-35 with or without the desired concentration of the compound. The reaction was incubated on ice for 15 min. […] After shaking for 5 min the reaction was further incubated for 1 hour at room temperature and this was kept at 4° C. and read on ARTEMIS reader as per the kit instructions (Thermo). […] The activity was calculated as percent of control reaction. IC50 values were calculated from dose response curve by nonlinear regression analysis using GraphPad Prism software.

Chain of MAP4K-1 enzyme (Q92918 whole entry): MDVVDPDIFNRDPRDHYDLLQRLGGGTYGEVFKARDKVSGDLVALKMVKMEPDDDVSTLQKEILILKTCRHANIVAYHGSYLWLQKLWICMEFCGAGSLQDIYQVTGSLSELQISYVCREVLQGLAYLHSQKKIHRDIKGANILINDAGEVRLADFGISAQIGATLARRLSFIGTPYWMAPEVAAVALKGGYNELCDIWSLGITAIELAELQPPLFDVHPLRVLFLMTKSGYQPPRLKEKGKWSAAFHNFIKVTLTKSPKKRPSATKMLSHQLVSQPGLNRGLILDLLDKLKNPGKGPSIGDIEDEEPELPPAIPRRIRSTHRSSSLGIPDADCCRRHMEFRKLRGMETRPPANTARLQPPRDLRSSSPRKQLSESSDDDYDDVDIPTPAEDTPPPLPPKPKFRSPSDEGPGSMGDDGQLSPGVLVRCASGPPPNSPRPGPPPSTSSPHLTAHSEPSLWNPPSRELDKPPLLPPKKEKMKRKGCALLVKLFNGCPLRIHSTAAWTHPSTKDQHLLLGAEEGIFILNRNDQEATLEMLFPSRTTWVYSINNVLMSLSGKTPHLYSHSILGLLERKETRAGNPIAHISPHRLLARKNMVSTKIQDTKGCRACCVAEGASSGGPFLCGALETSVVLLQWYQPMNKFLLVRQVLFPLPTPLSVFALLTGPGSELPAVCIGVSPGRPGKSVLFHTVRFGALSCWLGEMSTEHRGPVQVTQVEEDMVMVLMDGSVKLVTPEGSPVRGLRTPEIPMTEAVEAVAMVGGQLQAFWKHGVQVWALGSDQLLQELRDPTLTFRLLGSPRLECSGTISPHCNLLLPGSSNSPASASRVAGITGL

SMILES	inhibition at 1 µM	inhibition at 10 µM	IC50 (IC50 (nM))	other results
COc1cc2c(cc1Nc1ncc(Cl)c(Nc3ccc(OC(F)F)cc3P(C)(C)=O)n1)CN(C)CC2 [Example 45, (2-((5-Chloro-2-((6-methoxy-2-methyl-1,2,3,4-tetrahydroisoquinolin-7-yl)amino)pyrimidin-4-yl)amino)-5-(difluoromethoxy)phenyl)dimethylphosphineoxide]	74.8%	79%	–	IC50 (read-out: IC50): < 50 nM
COc1cc2c(cc1Nc1ncc(Cl)c(Nc3c(F)cc(OS(=O)(=O)F)cc3P(C)(C)=O)n1)CN(C)CC2 [Example 14, 4-((5-Chloro-2-((6-methoxy-2-methyl-1,2,3,4-tetrahydroisoquinolin-7-yl)amino)pyrimidin-4-yl)amino)-3-(dimethylphosphoryl)-5-fluorophenylsulfurofluoridate dihydrochloride]	89.7%	93.3%	< 50 nM	–
COc1cc2c(cc1Nc1ncc(Cl)c(Nc3cc(OS(=O)(=O)F)ccc3P(C)(C)=O)n1)CN(C)C(C)C2 (single isomer, unassigned; isomer 1) [Example 35, 3-((5-Chloro-2-((6-methoxy-2,3-dimethyl-1,2,3,4-tetrahydroisoquinolin-7-yl)amino)pyrimidin-4-yl)amino)-4-(dimethylphosphoryl)phenyl sulfofluoridate dihydrochloride (Isomer 1)]	83%	79.1%	< 50 nM	–
COc1cc2c(cc1Nc1ncc(Cl)c(Nc3ccc(OS(=O)(=O)F)cc3P(C)(C)=O)n1)C(C)N(C)CC2 (single isomer, unassigned; isomer 1) [Example 29, 4-((5-Chloro-2-((6-methoxy-1,2-dimethyl-1,2,3,4-tetrahydroisoquinolin-7-yl)amino)pyrimidin-4-yl)amino)-3-(dimethylphosphoryl)phenyl sulfofluoridate dihydrochloride (Isomer 1)]	76.5%	76.9%	< 50 nM	–
COc1nc2c(cc1Nc1ncc(Cl)c(Nc3ccc(OS(=O)(=O)F)cc3P(C)(C)=O)n1)CN(C)CC2 [Example 22, 4-((5-Chloro-2-((2-methoxy-6-methyl-5,6,7,8-tetrahydro-1,6-naphthyridin-3-yl)amino)pyrimidin-4-yl)amino)-3-(dimethylphosphoryl)phenyl sulfofluoridate]	–	–	–	% Inhibition at 1 μM: 75.12%; % Inhibition at 10 μM: 82.60%; IC50 (read-out: IC50): < 50 nM
COc1cc2c(cc1Nc1ncc(Cl)c(Nc3ccc(OS(=O)(=O)F)cc3P(C)(C)=O)n1)CN(C)C(C)(C)C2 [Example 25, 4-((5-Chloro-2-((6-methoxy-2,3,3-trimethyl-1,2,3,4-tetrahydroisoquinolin-7-yl)amino)pyrimidin-4-yl)amino)-3-(dimethylphosphoryl)phenyl sulfofluoridate dihydrochloride]	85.9%	90.7%	< 50 nM	–
COc1cc2c(cc1Nc1ncc(C(N)=O)c(Nc3ccc(OS(=O)(=O)F)cc3P(C)(C)=O)n1)CN(C)CC2 [Example 3, 4-((5-Carbamoyl-2-((6-methoxy-2-methyl-1,2,3,4-tetrahydroisoquinolin-7-yl)amino)pyrimidin-4-yl)amino)-3-(dimethylphosphoryl)phenyl sulfurofluoridate dihydrochloride]	85.6%	91.2%	< 50 nM	–
COc1cc2c(cc1Nc1ncc(Cl)c(Nc3ccc(N(C)S(=O)(=O)F)cc3P(C)(C)=O)n1)C(C)N(C)CC2 (racemic) [Example 44, ±(4-((5-Chloro-2-((6-methoxy-1,2-dimethyl-1,2,3,4-tetrahydroisoquinolin-7-yl)amino)pyrimidin-4-yl)amino)-3-dimethylphosphoryl)phenyl) (methyl)sulfamoylfluoride dihydrochloride]	81.6%	79.6%	< 50 nM	–
Cn1nc(Nc2ncc(Cl)c(Nc3ccc(OS(=O)(=O)F)cc3P(C)(C)=O)n2)c2c1CNC2 [Example 41, 4-((5-Chloro-2-((1-methyl-1,4,5,6-tetrahydropyrrolo[3,4-c]pyrazol-3-yl)amino)pyrimidin-4-yl)amino)-3-(dimethylphosphoryl)phenyl sulfofluoridate hydrochloride]	90.4%	85%	< 50 nM	–
COc1cc2c(cc1Nc1ncc(Cl)c(Nc3c(C)cc(OS(=O)(=O)F)cc3P(C)(C)=O)n1)CN(C)CC2 [Example 15, 4-((5-Chloro-2-((6-methoxy-2-methyl-1,2,3,4-tetrahydroisoquinolin-7-yl)amino)pyrimidin-4-yl)amino)-3-(dimethylphosphoryl)-5-methylphenyl sulfurofluoridate dihydrochloride]	78.6%	91.8%	> 500 nM	–
COc1cc2c(cc1Nc1ncc(Cl)c(Nc3ccc(S(C)(=N)=O)cc3P(C)(C)=O)n1)CN(C)CC2 (stereo not drawn) [Example 58, (2-((5-Chloro-2-((6-methoxy-2-methyl-1,2,3,4-tetrahydroisoquinolin-7-yl)amino)pyrimidin-4-yl)amino)-5-(S-methylsulfonimidoyl)phenyl)dimethylphosphine oxide]	96.6%	96.4%	–	IC50 (read-out: IC50): < 50 nM
COc1cc2c(cc1Nc1ncc(Cl)c(Nc3cc(OS(=O)(=O)F)ccc3P(C)(C)=O)n1)C(C)N(C)CC2 (single isomer, unassigned; isomer 2) [Example 32, 3-((5-Chloro-2-((6-methoxy-1,2-dimethyl-1,2,3,4-tetrahydroisoquinolin-7-yl)amino)pyrimidin-4-yl)amino)-4-(dimethylphosphoryl)phenyl sulfofluoridate dihydrochloride (Isomer 2)]	–	–	–	IC50: < 50 nM; % Inhibition at 1 μM (1 µM): 84.51%; % Inhibition at 10 μM (10 µM): 89.25%
COc1cc2c(cc1Nc1ncc(Cl)c(Nc3ccc(N(C)C(=O)C(F)F)cc3P(C)(C)=O)n1)CN(C)CC2 [Example 53, N-(4-((5-Chloro-2-((6-methoxy-2-methyl-1,2,3,4-tetrahydroisoquinolin-7-yl)amino)pyrimidin-4-yl)amino)-3-(dimethylphosphoryl)phenyl)-2,2-difluoro-N-methylacetamide]	82.4%	90%	–	IC50 (read-out: IC50): 50 to 100 nM
COc1cc2c(cc1Nc1ncc(Cl)c(N=S(C)(=O)c3ccccc3P(C)(C)=O)n1)CN(C)CC2 (stereo not drawn) [Example 57, (2-(N-(5-Chloro-2-((6-methoxy-2-methyl-1,2,3,4-tetrahydroisoquinolin-7-yl)amino)pyrimidin-4-yl)-S-methylsulfonimidoyl)phenyl)dimethylphosphine oxide]	83%	79.3%	–	IC50 (read-out: IC50): 50 to 100 nM
COc1cc2c(cc1Nc1ncc(Cl)c(Nc3ccc(OS(=O)(=O)F)cc3P(C)(C)=O)n1)C(=O)N(C)CC2 [Example 17, 4-((5-Chloro-2-((6-methoxy-2-methyl-1-oxo-1,2,3,4-tetrahydroisoquinolin-7-yl)amino)pyrimidin-4-yl)amino)-3-(dimethylphosphoryl)phenyl sulfurofluoridatehydrochloride]	86.6%	90.2%	< 50 nM	–
CN1CCc2cc(OC(F)F)c(Nc3ncc(Cl)c(Nc4ccc(OS(=O)(=O)F)cc4P(C)(C)=O)n3)cc2C1 [Example 10, 4-((5-Chloro-2-((6-(difluoromethoxy)-2-methyl-1,2,3,4-tetrahydroqisoquinolin-7-yl)amino)pyrimidin-4-yl)amino)-3-(dimethylphosphoryl)phenyl sulfurofluoridate dihydrochloride]	92.3%	89%	< 50 nM	–
COc1cc2c(cc1Nc1ncc(Cl)c(Nc3ccc(OS(=O)(=O)F)cc3P(C)(C)=O)n1)C(C)(C)N(C)CC2 [Example 11, 4-((5-Chloro-2-((6-methoxy-1,1,2-trimethyl-1,2,3,4-tetrahydroisoquinolin-7-yl)amino)pyrimidin-4-yl)amino)-3-(dimethylphosphoryl)phenyl sulfurofluoridate dihydrochloride]	75.1%	87.2%	< 50 nM	–
COc1cc2c(cc1Nc1ncc(Cl)c(Nc3cc(OS(=O)(=O)F)ccc3P(C)(C)=O)n1)C(C)N(C)CC2 (single isomer, unassigned; isomer 1) [Example 31, 3-((5-Chloro-2-((6-methoxy-1,2-dimethyl-1,2,3,4-tetrahydroisoquinolin-7-yl)amino)pyrimidin-4-yl)amino)-4-(dimethylphosphoryl)phenyl sulfofluoridate dihydrochloride (Isomer 1)]	84.4%	89%	< 50 nM	–
COc1cc2c(cc1Nc1ncc(Cl)c(Nc3ccc(OS(=O)(=O)F)cc3P(C)(C)=O)n1)CNCC2 [Example 38, 4-((5-Chloro-2-((6-methoxy-1,2,3,4-tetrahydroisoquinolin-7-yl)amino)pyrimidin-4-yl)amino)-3-(dimethylphosphoryl)phenylsulfofluoridate dihydrochloride]	84.5%	85.7%	< 50 nM	–
